Measurements as given in patent publication US20240165112A1, “THERAPY FOR THE TREATMENT OF CANCER” (Bristol-Myers Squibb Company, priority 2022, published 2024).

Experiments:
[1] = tested on: PAXF1657 organoid, pancreatic cancer; experiment: 3D clonogenic assay in patient derived organoids; format: cell-based, human
Procedure: (§1) Five tumor cell lines (4T1.2, A549, EMT6, NCI-H460, and HT29) were treated with a range of paclitaxel or 5-FU concentrations in the presence of dimethlylsulfoxide (DMSO), 5 μM Compound 1, or 20 μM Compound 1. Cells were imaged 4 days after treatment and percent confluence was assessed by image quantification. EC50 values for cell confluence were used to assess chemotherapy potency. Eleven patient-derived tumor organoids (MAXFTN449, MAXFTN2990, PAXF1657, PAXF2131, CXF1256, CXF2129, CXF2061, LXFE2478, LXFE690, LXFA677, LXFA644) were seeded in a 3D matrix and treated with a range of paclitaxel, 5-FU, SN38, Gemcitabine, oxaliplatin, and carboplatin concentrations in the presence of DMSO, 5 μM Compound 1, or 20 μM Compound 1. After 8 to 13 days in culture, colonies were stained, imaged, and counted. A dose response curve was generated for chemotherapy alone or chemotherapy in combination with 5 or 20 μM Compound 1. Combination activity was defined as a percentage of the area under the chemotherapy dose response curve (cAUC) for Compound 1 combination groups compared to the cAUC of chemotherapy alone.
(§2) For combination experiments, working stock solutions of all compounds were prepared in DMSO at concentrations of 660-fold the highest test concentration used and stored at −20° C. Platin compounds were prepared freshly on each treatment day. On each day of an experiment, an aliquot of the working stock solutions was used and stored at room temperature prior to and during treatment. First, 1:2 dilutions of 660-fold concentrated working stocks were prepared in DMSO (in case of monotherapy controls), or equal amounts of the compound working stocks were mixed (in case of drug combinations). Then, different dilutions of these 330-fold concentrated solutions were prepared in DMSO to give an 8×2 matrix combination layout with conditions. The DMSO dilutions were further diluted […] into cell culture medium (IMDM, supplemented with 20% (v/v) fetal bovine serum, and 50 μg/mL gentamicin) in an intermediate dilution plate. Finally, 10 μL taken from the intermediate dilution plate were transferred to 140 μL of cells and medium per well of the final assay plate. Thus, the DMSO dilutions used for the mono- and the combination-treatment were diluted 1:660, and the DMSO concentration in the assay was […].
(§3) Tumors were passaged as subcutaneous xenografts in NMRI nu/nu mice. At a tumor volume of 400 to 1000 mm^3, tumor-bearing mice were euthanized, and tumors were collected under sterile conditions without delay. Tumors were mechanically disaggregated and subsequently incubated with an enzyme cocktail consisting of collagenase type IV (41 U/mL), DNase I (125 U/mL), hyaluronidase type III (100 U/mL), and dispase II (1 U/mL) in RPMI 1640 medium at 37° C. for 60 to 120 minutes. Cells were passed through sieves of 100 μm and 40 μm mesh size, and washed with RPMI 1640 medium. The percentage of viable cells was determined in a Neubauer-hemocytometer using trypan blue exclusion. Aliquots of the cells were frozen down and stored in liquid nitrogen vapor phase. On each day of an experiment, a frozen aliquot of tumor cells was thawed and used for preparation of assay plates.
(§4) The clonogenic assay was carried out in a 96 well plate format using ultra low attachment plates. For each test, plates were prepared as follows: each test well contained a layer of semi-solid medium with tumor cells (50 μL), and a second layer of medium supernatant with or without test compound (100 μL). The cell layer consisted of […] to 12.5×10^3 tumor cells per well, which were seeded in 50 μL/well cell culture medium (IMDM, supplemented with 20% (v/v) fetal bovine serum, 50 μg/mL gentamicin, and 0.4% (w/v) agar). After 24 hours, the soft-agar layer was covered with 90 μL of the same culture medium without agar, and 10 μL of control medium or test compound after serial dilution in DMSO for the duration of the experiment (continuous exposure, 100 μL drug overlay).

[2] = tested on: MAXFTN449 organoid, breast cancer (triple negative); experiment: 3D clonogenic assay in patient derived organoids; format: cell-based, human
Procedure: as §1, §2, §3, §4

[3] = tested on: CXF2061 organoid, colon cancer; experiment: 3D clonogenic assay in patient derived organoids; format: cell-based, human
Procedure: as §1, §2, §3, §4

[4] = tested on: CXF1256 organoid, colon cancer; experiment: 3D clonogenic assay in patient derived organoids; format: cell-based, human
Procedure: as §1, §2, §3, §4

[5] = tested on: MAXFTN2990 organoid, breast cancer (triple negative); experiment: 3D clonogenic assay in patient derived organoids; format: cell-based, human
Procedure: as §1, §2, §3, §4

[6] = tested on: CXF2129 organoid, colon cancer; experiment: 3D clonogenic assay in patient derived organoids; format: cell-based, human
Procedure: as §1, §2, §3, §4

[7] = tested on: PAXF2131 organoid, Pancreatic cancer; experiment: 3D clonogenic assay in patient derived organoids; format: cell-based, human
Procedure: as §1, §2, §3, §4

[8] = tested on: Five tumor cell lines (4T1.2, A549, EMT6, NCI-H460, and HT29)
Procedure: as §1

EMT6 cell line = experiment: 2D cell line viability assay (cell confluence); format: cell-based, murine; conditions: Mus musculus, EMT6, 96 h, 4 days
From the text: (§5) FIGS. 4A-4E illustrate the effects of Compound 1 on the Potency of Paclitaxel in a 2D Cell Line Viability Assay. […] Data points indicate mean and Standard Deviation of 2 biological replicates. Graphs are representative of at least 2 independent experiments. […] Abbreviations: DMSO, dimethylsulfoxide.

4T1.2 cell line = experiment: 2D cell line viability assay (cell confluence); format: cell-based, murine; conditions: Mus musculus, 4T1.2, 96 h
From the text: as §5

HT29 cell line = experiment: 2D cell line viability assay (cell confluence); format: cell-based; conditions: Homo sapiens, HT-29, 96 h, 4 days
From the text: as §5

A549 cell line = experiment: 2D cell line viability assay (cell confluence); format: cell-based; conditions: Homo sapiens, A549, 96 h, 4 days
From the text: as §5

NCI-H460 cell line = experiment: 2D cell line viability assay (cell confluence); format: cell-based; conditions: Homo sapiens, NCI-H460, 96 h, 4 days
From the text: as §5

[9] = chemotherapy dose titration + 5 μM Compound 1 vs chemotherapy alone
[10] = chemotherapy dose titration + 20 μM Compound 1 vs chemotherapy alone
[11] = in the presence of 5 μM Compound 1
[12] = in the presence of 20 μM Compound 1

- potency of 5-FU in the presence of Compound 1 relative to 5-FU potency in the absence of Compound 1 [8]: ≤ 2 fold
- EC50 (4T1.2 cell line; 4 days after treatment, in the absence of Compound 1): 570 nM
- EC50 (4T1.2 cell line; 4 days, in the presence of 5 μM Compound 1): 500 nM
- EC50 (4T1.2 cell line; 4 days, in the presence of 20 μM Compound 1): 490 nM
- EC50 (HT29 cell line; in the absence of Compound 1): 2500 nM
- EC50 (HT29 cell line; [11]): 2500 nM
- EC50 (HT29 cell line; [12]): 1600 nM
- EC50 (A549 cell line; in the absence of Compound 1): 2400 nM
- EC50 (A549 cell line; [11]): 2600 nM
- EC50 (A549 cell line; [12]): 1500 nM
- EC50 (NCI-H460 cell line; in the absence of Compound 1): 2600 nM
- EC50 (NCI-H460 cell line; [11]): 1600 nM
- EC50 (NCI-H460 cell line; [12]): 1700 nM
Structure (SMILES): O=c1[nH]cc(F)c(=O)[nH]1 [Compound 5-FU, 5-Fluorouracil]
- Combination activity 5 μM Compound 1 (cAUC % reduction) [1, 9]: 32%
- Combination activity 20 μM Compound 1 (cAUC % reduction) [1, 10]: 32%
- Combination activity 5 μM Compound 1 (cAUC % reduction) [2, 9]: 29%
- Combination activity 20 μM Compound 1 (cAUC % reduction) [2, 10]: 14%
- Combination activity 5 μM Compound 1 (cAUC % reduction) [3, 9]: 25%
- Combination activity 20 μM Compound 1 (cAUC % reduction) [3, 10]: 18%
- Combination activity 5 μM Compound 1 (cAUC % reduction) [4, 9]: 78%
- Combination activity 20 μM Compound 1 (cAUC % reduction) [4, 10]: 79%
- Combination activity 5 μM Compound 1 (cAUC % reduction) [5, 9]: −25%
- Combination activity 20 μM Compound 1 (cAUC % reduction) [5, 10]: 8%
- Combination activity 5 μM Compound 1 (cAUC % reduction) [6, 9]: 42%
- Combination activity 20 μM Compound 1 (cAUC % reduction) [6, 10]: 31%
- Combination activity 5 μM Compound 1 (cAUC % reduction) [7, 9]: 52%
- Combination activity 20 μM Compound 1 (cAUC % reduction) [7, 10]: 67%
- EC50 (EMT6 cell line; in the absence of Compound 1): 2700 nM
- EC50 (EMT6 cell line; [11]): 2500 nM
- EC50 (EMT6 cell line; [12]): 2600 nM
